Assay results: patent US9439904B2, “Pyrimidine compounds and their use as gamma secretase modulators” (Acturum Life Science AB, priority 2013, dated 2016)

Tests used:
Aβ42 [1] = test: PCN assay: Aβ42 secreted by primary cortical neuronal cells, ELISA; format: cell-based; conditions: primary cortical neuronal cells from 16-day mouse embryos; 16-20 hours incubation with test compound; read-out: pIC50 Aβ42 PCN assay (converted)
Procedure: Compounds were diluted in 100% DMSO and stored at […] prior to use. Primary cortical neuronal cells (PCN) were isolated from 16-day mouse embryos and cultured in Ham's F12 media containing 10% Foetal bovine serum, 10 mM Hepes, 2 mM L-glutamine and 100 U/mL Penicillin-Streptomycin. 150000-250000 cells/well, in 200 μL cell media were seeded onto 96-well poly-D-Lysine coated plates. After incubation at 37° C., 5% CO2 for five days, the media was exchanged for fresh medium containing test compound diluted ×100, before further incubation for 16-20 hours at 37° C. and 5% CO2. After incubation with test compound the amount of […] secreted to cell medium was analyzed using the solid phase sandwich Enzyme-Linked-Immuno-Sorbent Assay (ELISA)-kit from Invitrogen for detection of mouse βAmyloid 1-42. Potential cytotoxic effects of the compounds were assayed by measuring the ATP content (Via Light) from cell lysate.

Aβ42 [2] = test: HEK assay: Aβ42 secreted to cell medium, Meso Scale Discovery electrochemiluminescence; format: cell-based; conditions: Homo sapiens, HEK293; HEK cell line stably expressing APPswe; 4-6 hours incubation with test compound; read-out: pIC50 Aβ42 HEK assay (converted)
Procedure: Compounds were diluted in 100% DMSO and stored at […] prior to use. Human Embryonic Kidney (HEK) cell line stably expressing APP with the Swedish mutation (APPswe) was cultured using Dulbecco's Modified Eagles medium (DMEM) supplied with […] glucose, Na-pyruvate and GlutaMAX, 10% Foetal bovine serum, 100 U/mL penicillin-streptomycin (PEST), 1× non-essential amino acids (NEAA), […] Hepes, 100 μg/mL Zeocine. Cells at about 80% confluence were washed with PBS, detached from culture flasks using 1× Trypsin/EDTA diluted in PBS, re-suspended in cell media and plated in 384-well poly-d-lysine coated cell culture plates at about 10000-15000 cells/well, in 25 μL cell media. Optionally, cryo-preserved cells (frozen and stored at −140° C. in 90% cell media and 10% DMSO) were thawed, washed and plated as above. Next the cells were incubated for 15-24 h at 37° C. and 5% CO2, after which cell medium was changed. Fresh medium containing test compound diluted ×200 from prepared compound plate was added to the cells before further incubation for 4-6 hours at 37° C. and 5% CO2. After incubation with test compound the amount of Aβ peptides, including Aβ42, Aβ40, Aβ39, Aβ38 and Aβ37, secreted to cell medium was analyzed using the electrochemiluminescence assay technology from Meso Scale Discovery Technology, in combination with specific antibodies raised against the different Aβ peptides. Potential cytotoxic effects of the compounds were assayed by measuring the ATP content (ViaLight) from cell lysate.

| IC50 (Aβ42 [2]) [nM] | SMILES | IC50 (Aβ42 [1]) [nM] |
| --- | --- | --- |
| 63.1 | COc1cc(Nc2nc(COCC(F)(F)F)cc(OCC3CC3)n2)ccc1-n1cnc(C)c1 [Example 51, 4-(Cyclopropylmethoxy)-N-[3-methoxy-4-(4-methyl-1H-imidazol-1-yl)phenyl]-6-[(2,2,2-trifluoroethoxy)methyl]pyrimidin-2-amine] | 126 |
| 200 | CCOC1(c2cc(C(C)(C)O)nc(Nc3ccc(-n4cnc(C)c4)c(OC)c3)n2)CC1(F)F (stereo not shown) [Example 52, 2-(6-(1-Ethoxy-2,2-difluorocyclopropyl)-2-(3-methoxy-4-(4-methyl-1H-imidazol-1-yl)phenylamino)pyrimidin-4-yl)propan-2-ol] | 200 |
